The values that follow come from ChEMBL document CHEMBL5053505, “Rational Remodeling of Atypical Scaffolds for the Design of Photoswitchable Cannabinoid Receptor Tools” (J Med Chem, 2021).

The target of experiment [1] is T1, Cannabinoid receptor 1 (Homo sapiens, UniProt P21554). Briefly: Antagonist activity at human CB1 Receptor expressed in CHO cell membranes measured after 24 hrs by HTRF assay. Type of experiment: functional, Cell membrane. In general terms: TR-FRET usually uses a lanthanide donor and a delayed reading to cut background.
T1 sequence (P21554 whole entry): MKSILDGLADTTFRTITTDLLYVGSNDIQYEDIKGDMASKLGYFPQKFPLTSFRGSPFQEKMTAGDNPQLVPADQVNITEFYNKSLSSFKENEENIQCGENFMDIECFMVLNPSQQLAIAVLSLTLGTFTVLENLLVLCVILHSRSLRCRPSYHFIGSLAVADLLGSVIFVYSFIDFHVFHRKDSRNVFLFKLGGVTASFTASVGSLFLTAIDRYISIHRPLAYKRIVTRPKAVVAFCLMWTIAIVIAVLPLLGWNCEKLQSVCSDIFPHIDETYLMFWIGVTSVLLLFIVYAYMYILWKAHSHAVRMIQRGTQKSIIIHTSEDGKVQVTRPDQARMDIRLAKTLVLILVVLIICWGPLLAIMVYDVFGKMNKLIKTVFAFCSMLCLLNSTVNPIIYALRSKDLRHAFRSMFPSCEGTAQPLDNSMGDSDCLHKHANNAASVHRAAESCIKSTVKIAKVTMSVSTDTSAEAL
The target in experiment [2] is T2, Cannabinoid receptor 2 (Homo sapiens, UniProt P34972). Kind of experiment: Antagonist activity at human CB2 Receptor expressed in CHO cell membranes measured after 24 hrs by HTRF assay. Type of experiment: functional, Cell membrane.
T2 sequence (P34972 whole entry): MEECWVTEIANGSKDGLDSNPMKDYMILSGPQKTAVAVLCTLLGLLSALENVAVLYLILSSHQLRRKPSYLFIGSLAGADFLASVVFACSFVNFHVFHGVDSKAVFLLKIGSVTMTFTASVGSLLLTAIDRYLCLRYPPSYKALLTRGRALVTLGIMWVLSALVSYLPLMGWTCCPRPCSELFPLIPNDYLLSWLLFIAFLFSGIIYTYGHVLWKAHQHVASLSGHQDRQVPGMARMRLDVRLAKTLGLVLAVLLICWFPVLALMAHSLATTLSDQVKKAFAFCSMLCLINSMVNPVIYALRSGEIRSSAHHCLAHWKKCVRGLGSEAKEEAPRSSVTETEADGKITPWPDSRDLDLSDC
The target in experiment [3] is T2, Cannabinoid receptor 2. Briefly: Antagonist activity at human CB2 Receptor expressed in CHO-K1 cells assessed as reduction in CP55940-induced ERK1/2 phosphorylation measured Western blot analysis. In kind it is functional, cell-based. As to conditions: filed as antagonist.
For experiment [4], the target named is T1, Cannabinoid receptor 1. Briefly: Antagonist activity at human CB1 Receptor expressed in CHO-K1 cells assessed as reduction in CP55940-induced ERK1/2 phosphorylation measured Western blot analysis. Type of experiment: functional, cell-based. (In general: In western blotting, separated proteins are transferred to a membrane and probed.)

Structures are written as SMILES. Active and inactive are the calls of the source. The calls are words filed in the database; no cut-off is given here.

Regarding `Cc1c(C(=O)NCCCc2cccc(/N=N\c3ccccc3)c2)nn(CCCCCO)c1-c1ccccc1`, the figures for the IC50 against Cannabinoid receptor 1 [1] and on Cannabinoid receptor 2 [2] were 3.8 µM and 1.1 µM, respectively.
Consider `Cc1c(C(=O)NCCCc2ccc(/N=N\c3ccccc3)cc2)nn(CCCCCO)c1-c1ccccc1`, for which the values for the IC50 on Cannabinoid receptor 1 [1] and on Cannabinoid receptor 2 [2] were 5.4 µM and 3.5 µM, respectively.
For `Cc1c(C(=O)NCc2cccc(/N=N\c3ccccc3)c2)nn(CCCCCO)c1-c1ccccc1` the same measures were 5.8 µM and 7 µM.
Turning to `Cc1c(C(=O)NCCCc2ccc(/N=N/c3ccccc3)cc2)nn(CCCCCO)c1-c1ccccc1`, 7.2 µM corresponded to half-maximal inhibition on Cannabinoid receptor 1 [1] (IC50).
For the molecule `Cc1c(C(=O)NCCCc2ccccc2/N=N\c2ccccc2)nn(CCCCCO)c1-c1ccccc1`, the IC50 (usually the concentration that inhibits the measured activity by half) on Cannabinoid receptor 1 [1] is 3.9 µM; at Cannabinoid receptor 2 [2], 1.3 µM.
On to `Cc1c(C(=O)NCc2ccccc2/N=N\c2ccccc2)nn(CCCCCO)c1-c1ccccc1`, for which the outcome on Cannabinoid receptor 2 [3] was Active. The half-inhibitory concentration (IC50) against Cannabinoid receptor 1 [1] worked out at 1.1 µM; against Cannabinoid receptor 2 [2], 0.07 µM. For the same molecule, the outcome at Cannabinoid receptor 1 [4] was inactive.
Regarding `Cc1c(C(=O)NCCc2ccccc2/N=N\c2ccccc2)nn(CCCCCO)c1-c1ccccc1`, the half-maximal inhibitory concentration (IC50) on Cannabinoid receptor 1 [1] came out at 1.7 µM; at Cannabinoid receptor 2 [2] it was 0.36 µM.
For `Cc1c(C(=O)Nc2cccc(/N=N/c3ccccc3)c2)nn(CCCCCO)c1-c1ccccc1`, in that order: 6.2 µM and 1.5 µM.
Turning to `Cc1c(C(=O)NCCCc2ccccc2/N=N/c2ccccc2)nn(CCCCCO)c1-c1ccccc1`, the IC50 at Cannabinoid receptor 1 [1] came out at 9 µM; on Cannabinoid receptor 2 [2] it was 3.4 µM.
Molecule `Cc1c(C(=O)Nc2ccccc2/N=N\c2ccccc2)nn(CCCCCO)c1-c1ccccc1` registered an IC50 at Cannabinoid receptor 2 [2] of 0.62 µM.
`Cc1c(C(=O)NCc2cccc(/N=N/c3ccccc3)c2)nn(CCCCCO)c1-c1ccccc1` registered an IC50 against Cannabinoid receptor 1 [1] of 9.4 µM.
Take `Cc1c(C(=O)NCCc2cccc(/N=N/c3ccccc3)c2)nn(CCCCCO)c1-c1ccccc1`: the concentration for half-maximal inhibition (IC50) amounted to 5.9 µM against Cannabinoid receptor 1 [1] and 6.5 µM at Cannabinoid receptor 2 [2].
On Cannabinoid receptor 1 [1], `Cc1c(C(=O)NCCc2ccc(/N=N/c3ccccc3)cc2)nn(CCCCCO)c1-c1ccccc1` yielded an IC50 of 7.9 µM.
For the molecule `Cc1c(C(=O)NCCc2ccccc2/N=N/c2ccccc2)nn(CCCCCO)c1-c1ccccc1`, the 50% inhibitory concentration (IC50) against Cannabinoid receptor 1 [1] amounted to 3.8 µM; at Cannabinoid receptor 2 [2], 2.1 µM.
For the molecule `Cc1c(C(=O)NCCc2cccc(/N=N\c3ccccc3)c2)nn(CCCCCO)c1-c1ccccc1`, the IC50 came to 3.3 µM at Cannabinoid receptor 1 [1] and 1.6 µM at Cannabinoid receptor 2 [2].
Consider `Cc1c(C(=O)NCCCc2cccc(/N=N/c3ccccc3)c2)nn(CCCCCO)c1-c1ccccc1`, for which the IC50 on Cannabinoid receptor 1 [1] amounted to 4.8 µM; against Cannabinoid receptor 2 [2] it was 3.7 µM.
Consider `Cc1c(C(=O)Nc2ccccc2/N=N/c2ccccc2)nn(CCCCCO)c1-c1ccccc1`, for which, at Cannabinoid receptor 2 [2], the midpoint of inhibition, the IC50, lay at 5.5 µM.
As for `Cc1c(C(=O)Nc2cccc(/N=N\c3ccccc3)c2)nn(CCCCCO)c1-c1ccccc1`, the half-inhibitory concentration (IC50) was 2.4 µM on Cannabinoid receptor 1 [1] and 0.41 µM on Cannabinoid receptor 2 [2].
For `Cc1c(C(=O)NCCc2ccc(/N=N\c3ccccc3)cc2)nn(CCCCCO)c1-c1ccccc1`, the values for the half-maximal inhibitory concentration (IC50) against Cannabinoid receptor 1 [1] and on Cannabinoid receptor 2 [2] were 3.3 µM and 5.2 µM, respectively.
On Cannabinoid receptor 1 [1], `Cc1c(C(=O)NCc2ccc(/N=N/c3ccccc3)cc2)nn(CCCCCO)c1-c1ccccc1` showed a 50% inhibitory concentration (IC50) of 8.3 µM.
As to `Cc1c(C(=O)NCc2ccc(/N=N\c3ccccc3)cc2)nn(CCCCCO)c1-c1ccccc1`, the half-maximal inhibitory concentration (IC50) was found to be 4.1 µM at Cannabinoid receptor 1 [1] and 6.9 µM against Cannabinoid receptor 2 [2].
Take `Cc1c(C(=O)Nc2ccc(/N=N\c3ccccc3)cc2)nn(CCCCCO)c1-c1ccccc1`: on Cannabinoid receptor 2 [2], the IC50 amounted to 9 µM.
In the case of `Cc1c(C(=O)NCc2ccccc2/N=N/c2ccccc2)nn(CCCCCO)c1-c1ccccc1`, the result at Cannabinoid receptor 2 [3] was Active. Moreover, the concentration for half-maximal inhibition (IC50) stood at 1.6 µM at Cannabinoid receptor 1 [1] and 3.2 µM against Cannabinoid receptor 2 [2]. Besides, the outcome on Cannabinoid receptor 1 [4] was inactive.
